Experimental data as given in patent US12344600B2, “c-Myc mRNA translation modulators and uses thereof in the treatment of cancer” (Anima Biotech Inc., priority 2022, dated 2025).

These compounds were tested on c-Myc (assay: c-Myc immunofluorescence assay). Conditions: A549 cells, 24 hours, anti-c-Myc immunofluorescence.
Type: cell-based, human
Outline: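 Read-out is imaged c-Myc immunofluorescence, nucleus-segmented, in A549 lung carcinoma cells exposed to compound dose series for 24 h after 48 h growth. Fixation 4% paraformaldehyde, Triton permeabilization, antibody staining at room temperature; EC50 from logistic fit of signal versus concentration.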
With `COc1ccc(-c2noc(N3CCC(C(=O)NCC4CCN(C(=O)c5ccc(C)cc5)C4)CC3)n2)cc1` (stereo not shown) [Compound 222, 1-(3-(4-methoxyphenyl)-1,2,4-oxadiazol-5-yl)-N-((1-(4-methylbenzoyl)pyrrolidin-3-yl)methyl)piperidine-4-carboxamide] the “Myc Efficacy (−LogEC50)” value was “++ (++ ≥5 and <6)”.
In the case of `COc1ccc(-c2noc(N3CCC(C(=O)NCC4CCN(Cc5ccc(C)cn5)C4)CC3)n2)cc1` (stereo not shown) [Compound 223, 1-(3-(4-methoxyphenyl)-1,2,4-oxadiazol-5-yl)-N-((1-((5-methylpyridin-2-yl)methyl)pyrrolidin-3-yl)methyl)piperidine-4-carboxamide], the “Myc Efficacy (−LogEC50)” value is reported as “++ (++ ≥5 and <6)”.
With `COc1ccc(-c2noc(N3CCC(C(=O)Nc4ccccc4Cl)CC3)n2)cc1` [Compound 224, N-(2-chlorophenyl)-1-(3-(4-methoxyphenyl)-1,2,4-oxadiazol-5-yl)piperidine-4-carboxamide] the “Myc Efficacy (−LogEC50)” value was “+ (+ >3 and <5)”.
`COc1ccc(-c2noc(N3CCN(C(=O)N4CCN(C(C)=O)CC4)CC3)n2)cc1` [Compound 225, 1-(4-(4-(3-(4-methoxyphenyl)-1,2,4-oxadiazol-5-yl)piperazine-1-carbonyl)piperazin-1-yl)ethan-1-one] was tested, and the “Myc Efficacy (−LogEC50)” value was “− (− ≤3)”.
For `COc1ccc(-c2noc(N3CCN(C(=O)N4CCCC(CC(C)C)C4)CC3)n2)cc1` (stereo not shown) [Compound 226, (3-isobutylpiperidin-1-yl)(4-(3-(4-methoxyphenyl)-1,2,4-oxadiazol-5-yl)piperazin-1-yl)methanone], the “Myc Efficacy (−LogEC50)” value was “+ (+ >3 and <5)”.
With `COc1ccc(-c2noc(N3CCN(C(=O)C4CCCN(CC(C)C)C4)CC3)n2)cc1` (stereo not shown) [Compound 227, (1-isobutylpiperidin-3-yl)(4-(3-(4-methoxyphenyl)-1,2,4-oxadiazol-5-yl)piperazin-1-yl)methanone] the “Myc Efficacy (−LogEC50)” value was “+ (+ >3 and <5)”.
For `COc1ccc(-c2noc(N3CCC(C(=O)NCCCN4CCN(C(=O)c5ccccc5)CC4)CC3)n2)cc1` [Compound 228, N-(3-(4-benzoylpiperazin-1-yl)propyl)-1-(3-(4-methoxyphenyl)-1,2,4-oxadiazol-5-yl)piperidine-4-carboxamide], the “Myc Efficacy (−LogEC50)” value was “+ (+ >3 and <5)”.
In the case of `COc1ccc(-c2noc(C3CCC(C(=O)NCC4CC(=O)N(C)C4)CC3)n2)cc1` (stereo not shown) [Compound 229, (1r,4r)-4-(3-(4-methoxyphenyl)-1,2,4-oxadiazol-5-yl)-N-((1-methyl-5-oxopyrrolidin-3-yl)methyl)cyclohexane-1-carboxamide], the “Myc Efficacy (−LogEC50)” value is reported as “+ (+ >3 and <5)”.
`CC(=O)Nc1cccc(-c2noc(N3CCC(C(=O)NCC4CCN(Cc5ccc(C)cc5)C4)CC3)n2)c1` (stereo not shown) [Compound 230, 1-(3-(3-acetamidophenyl)-1,2,4-oxadiazol-5-yl)-N-((1-(4-methylbenzyl)pyrrolidin-3-yl)methyl)piperidine-4-carboxamide] was tested, and the “Myc Efficacy (−LogEC50)” value was “+ (+ >3 and <5)”.
For `COc1ccc(-c2noc(N3CCC(C(=O)NCC4CCN(Cc5ccc(C)cc5)C4)CC3)n2)c(Cl)c1` (stereo not shown) [Compound 231, 1-(3-(2-chloro-4-methoxyphenyl)-1,2,4-oxadiazol-5-yl)-N-((1-(4-methylbenzyl)pyrrolidin-3-yl)methyl)piperidine-4-carboxamide], the “Myc Efficacy (−LogEC50)” value was “++ (++ ≥5 and <6)”.
For `COc1ncc(-c2noc(N3CCC(C(=O)NCC4CCN(Cc5ccc(C)cc5)C4)CC3)n2)cn1` (stereo not shown) [Compound 232, 1-(3-(2-methoxypyrimidin-5-yl)-1,2,4-oxadiazol-5-yl)-N-((1-(4-methylbenzyl)pyrrolidin-3-yl)methyl)piperidine-4-carboxamide], the “Myc Efficacy (−LogEC50)” value was “+ (+ >3 and <5)”.
For `COc1cnc(-c2noc(N3CCC(C(=O)NCC4CCN(Cc5ccc(C)cc5)C4)CC3)n2)cn1` (stereo not shown) [Compound 233, 1-(3-(5-methoxypyrazin-2-yl)-1,2,4-oxadiazol-5-yl)-N-((1-(4-methylbenzyl)pyrrolidin-3-yl)methyl)piperidine-4-carboxamide], the “Myc Efficacy (−LogEC50)” value was “+ (+ >3 and <5)”.
With `COc1ccc(-c2noc(N3CCC(C(=O)NCC4CCN(c5ccccc5)C4)CC3)n2)cc1` (stereo not shown) [Compound 234, 1-(3-(4-methoxyphenyl)-1,2,4-oxadiazol-5-yl)-N-((1-phenylpyrrolidin-3-yl)methyl)piperidine-4-carboxamide] the “Myc Efficacy (−LogEC50)” value was “+ (+ >3 and <5)”.
With `COc1ccc(-c2noc(N3CCN(c4nc5ccccc5[nH]4)CC3)n2)cc1` [Compound 235, 5-(4-(1H-benzo[d]imidazol-2-yl)piperazin-1-yl)-3-(4-methoxyphenyl)-1,2,4-oxadiazole] the “Myc Efficacy (−LogEC50)” value was “+ (+ >3 and <5)”.
In the case of `COc1ccc(-c2noc(N3CCN(C(=O)c4cccc(CN5CCCCC5)c4)CC3)n2)cc1` [Compound 236, (4-(3-(4-methoxyphenyl)-1,2,4-oxadiazol-5-yl)piperazin-1-yl)(3-(piperidin-1-ylmethyl)phenyl)methanone], the “Myc Efficacy (−LogEC50)” value is reported as “++ (++ ≥5 and <6)”.
With `Cc1ccc(CN2CCC(CNC(=O)C3CCN(c4nc(-c5ccc(OC(F)(F)F)cc5)no4)CC3)C2)cc1` (stereo not shown) [Compound 237, N-((1-(4-methylbenzyl)pyrrolidin-3-yl)methyl)-1-(3-(4-(trifluoromethoxy)phenyl)-1,2,4-oxadiazol-5-yl)piperidine-4-carboxamide] the “Myc Efficacy (−LogEC50)” value was “++ (++ ≥5 and <6)”.
In the case of `Cc1ccc(CN2CCC(CNC(=O)C3CCN(c4nc(-c5ccc(OC(F)F)cc5)no4)CC3)C2)cc1` (stereo not shown) [Compound 238, 1-(3-(4-(difluoromethoxy)phenyl)-1,2,4-oxadiazol-5-yl)-N-((1-(4-methylbenzyl)pyrrolidin-3-yl)methyl)piperidine-4-carboxamide], the “Myc Efficacy (−LogEC50)” value is reported as “+++ (+++ ≥6)”.
With `O=C(NCCCN1CCC(Cc2ccccc2)CC1)C1CCN(c2nc(-c3ccc(OC(F)(F)F)cc3)no2)CC1` [Compound 239, N-(3-(4-benzylpiperidin-1-yl)propyl)-1-(3-(4-(trifluoromethoxy)phenyl)-1,2,4-oxadiazol-5-yl)piperidine-4-carboxamide] the “Myc Efficacy (−LogEC50)” value was “+++ (+++ ≥6)”.
For `O=C(NCCCN1CCC(Cc2ccccc2)CC1)C1CCN(c2nc(-c3ccc(OC(F)F)cc3)no2)CC1` [Compound 240, N-(3-(4-benzylpiperidin-1-yl)propyl)-1-(3-(4-(difluoromethoxy)phenyl)-1,2,4-oxadiazol-5-yl)piperidine-4-carboxamide], the “Myc Efficacy (−LogEC50)” value was “+++ (+++ ≥6)”.
In the case of `N#Cc1ccc(-c2noc(N3CCC(C(=O)NCCCN4CCC(Cc5ccccc5)CC4)CC3)n2)cc1` [Compound 241, N-(3-(4-benzylpiperidin-1-yl)propyl)-1-(3-(4-cyanophenyl)-1,2,4-oxadiazol-5-yl)piperidine-4-carboxamide], the “Myc Efficacy (−LogEC50)” value is reported as “+++ (+++ ≥6)”.
`COc1ccc(-c2noc(N3CCC(C(=O)NCC4CCN(C(=O)c5ccc(C)cn5)C4)CC3)n2)cc1` (stereo not shown) [Compound 242, 1-(3-(4-methoxyphenyl)-1,2,4-oxadiazol-5-yl)-N-((1-(5-methylpicolinoyl)pyrrolidin-3-yl)methyl)piperidine-4-carboxamide] was tested, and the “Myc Efficacy (−LogEC50)” value was “+ (+ >3 and <5)”.
For `Cc1ccc(CN2CCC(CNC(=O)C3CCN(c4nc(-c5ccc(Cl)cc5)no4)CC3)C2)nc1` (stereo not shown) [Compound 243, 1-(3-(4-chlorophenyl)-1,2,4-oxadiazol-5-yl)-N-((1-((5-methylpyridin-2-yl)methyl)pyrrolidin-3-yl)methyl)piperidine-4-carboxamide], the “Myc Efficacy (−LogEC50)” value was “+++ (+++ ≥6)”.
With `Cc1ccc(CN2CCC(CNC(=O)C3CCN(c4nc(-c5ccc(C#N)cc5)no4)CC3)C2)nc1` (stereo not shown) [Compound 244, 1-(3-(4-cyanophenyl)-1,2,4-oxadiazol-5-yl)-N-((1-((5-methylpyridin-2-yl)methyl)pyrrolidin-3-yl)methyl)piperidine-4-carboxamide] the “Myc Efficacy (−LogEC50)” value was “+ (+ >3 and <5)”.
`COc1ccc(-c2noc(N3CCN(C(=O)NCCCN4CCC(Oc5ccccc5)CC4)CC3)n2)cc1` [Compound 245, 4-(3-(4-methoxyphenyl)-1,2,4-oxadiazol-5-yl)-N-(3-(4-phenoxypiperidin-1-yl)propyl)piperazine-1-carboxamide] was tested, and the “Myc Efficacy (−LogEC50)” value was “+++ (+++ ≥6)”.
`C#CCCC1(CCNC(=O)N2CCN(c3nc(-c4ccc(OC)cc4)no3)CC2)N=N1` [Compound 246, N-(2-(3-(but-3-yn-1-yl)-3H-diazirin-3-yl)ethyl)-4-(3-(4-methoxyphenyl)-1,2,4-oxadiazol-5-yl)piperazine-1-carboxamide] was tested, and the “Myc Efficacy (−LogEC50)” value was “+ (+ >3 and <5)”.
In the case of `COc1cnc(-c2noc(N3CCC(C(=O)NCC4CCN(Cc5ccc(C)cc5)C4)CC3)n2)nc1` (stereo not shown) [Compound 247, 1-(3-(5-methoxypyrimidin-2-yl)-1,2,4-oxadiazol-5-yl)-N-((1-(4-methylbenzyl)pyrrolidin-3-yl)methyl)piperidine-4-carboxamide], the “Myc Efficacy (−LogEC50)” value is reported as “+ (+ >3 and <5)”.
In the case of `COc1ccc(-c2noc(N3CCN(C(=O)NCCCN4CCC(Cc5ccccn5)CC4)CC3)n2)cc1` [Compound 248, 4-(3-(4-methoxyphenyl)-1,2,4-oxadiazol-5-yl)-N-(3-(4-(pyridin-2-ylmethyl)piperidin-1-yl)propyl)piperazine-1-carboxamide], the “Myc Efficacy (−LogEC50)” value is reported as “+++ (+++ ≥6)”.
`COc1ccc(-c2noc(N3CCC(C(=O)NCC4(N(C)C)CCCCC4)CC3)n2)cc1` [Compound 249, N-((1-(dimethylamino)cyclohexyl)methyl)-1-(3-(4-methoxyphenyl)-1,2,4-oxadiazol-5-yl)piperidine-4-carboxamide] was tested, and the “Myc Efficacy (−LogEC50)” value was “+ (+ >3 and <5)”.
`COc1ccc(-c2noc(N3CCC(C(=O)NCC4CCN(C(C)(C)C)C4)CC3)n2)cc1` (stereo not shown) [Compound 250, N-((1-(tert-butyl)pyrrolidin-3-yl)methyl)-1-(3-(4-methoxyphenyl)-1,2,4-oxadiazol-5-yl)piperidine-4-carboxamide] was tested, and the “Myc Efficacy (−LogEC50)” value was “+ (+ >3 and <5)”.
With `CCCN1CCC(NC(=O)C2CCN(c3nc(-c4ccc(OC)cc4)no3)CC2)CC1` [Compound 251, 1-(3-(4-methoxyphenyl)-1,2,4-oxadiazol-5-yl)-N-(1-propylpiperidin-4-yl)piperidine-4-carboxamide] the “Myc Efficacy (−LogEC50)” value was “− (− ≤3)”.
For `COc1ccc(-c2noc(N3CCC(C(=O)NC[C@H]4CCCN4C)CC3)n2)cc1` [Compound 252, (R)-1-(3-(4-methoxyphenyl)-1,2,4-oxadiazol-5-yl)-N-((1-methylpyrrolidin-2-yl)methyl)piperidine-4-carboxamide], the “Myc Efficacy (−LogEC50)” value was “+ (+ >3 and <5)”.
